In patent US20250223281A1, “ANTIDIABETIC COMPOUNDS AND COMPOSITIONS” (REZUBIO PHARMACEUTICALS CO., LTD, priority 2022, published 2025):

Biological target: T1, GPR40 (Homo sapiens, UniProt O14842)
T1 construct: expressed in transfected cells; host or cells: HEK293 cells stably expressing GPR40 (Hygromycin selection)
Assay: IP1 accumulation assay in HEK293 cells stably expressing GPR40
Format: cell-based
Procedure, shortened: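 HEK293 cells stably expressing human GPR40 were incubated with compounds (10-point, 3-fold dilution series) for 2 h at 37 °C, then IP1 was detected by HTRF (665/615 nm ratio). Effect was normalised to DMSO blank and AMG-1638 as 100%, and EC50 was derived from dose curves.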

[1] = IP1 accumulation, HEK293 cells stably expressing GPR40, 2 hours at 37° C., % effect relative to AMG-1638, table of Biological Example 1
[2] = Table A-8 (additional examples), obtained by methods of Biological Example 1
[3] = Tables A-1a to A-7b (structure-property relationship), obtained by methods of Biological Example 1

T1 sequence (O14842 whole entry): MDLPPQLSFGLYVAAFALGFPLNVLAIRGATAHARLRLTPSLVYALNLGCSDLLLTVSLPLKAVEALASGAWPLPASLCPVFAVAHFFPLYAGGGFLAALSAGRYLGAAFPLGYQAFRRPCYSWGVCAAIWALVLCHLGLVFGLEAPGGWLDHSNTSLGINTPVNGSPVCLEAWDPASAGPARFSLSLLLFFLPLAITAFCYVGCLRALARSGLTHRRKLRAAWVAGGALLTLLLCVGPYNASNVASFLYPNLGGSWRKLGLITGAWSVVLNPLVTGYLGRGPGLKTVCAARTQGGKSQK

Row | SMILES | EC50 [1] | EC50 [2] | EC50 [3]
1 | C[C@H](C(=O)O)[C@H](c1ccc2c(c1)O[C@@H](C1CCN(Cc3cc(-n4cc(CCCCCCCCCC(=O)NCCN(CCC(=O)NCCN)CCC(=O)NCCN)nn4)ccc3OC(F)(F)F)CC1)CC2)C1CC1 [Example 193] | 413 nM | 413 nM | 413 nM
2 | C[C@H](C(=O)O)[C@H](c1ccc2c(c1)O[C@@H](C1CCN(Cc3cc(-n4cc(CCCCCCCCCC(=O)NCC[N+](C)(CCC(=O)NCCN)CCC(=O)NCCN)nn4)ccc3OC(F)(F)F)CC1)CC2)C1CC1 [Example 194] | 114 nM | 94 nM | 114 nM
3 | COc1ccc(C(=O)N(CC(C)(C)CCCCCCn2cc(CCCCCCCCC(=O)NCCCN(CC(=O)O)CC(=O)O)nn2)c2cccc(C)n2)c(N2CCC(COc3cc([C@@H](CC(=O)O)C4CC4)ccn3)CC2)c1 [Example 203] | 11.9 nM |  | 
4 | COc1ccc(C(=O)N(CC(C)(C)CCCCCCn2cc(CCCCCCCCCC(=O)NCCCN(CC(=O)O)CC(=O)O)nn2)c2cccc(C)n2)c(N2CCC(COc3cc([C@@H](CC(=O)O)C4CC4)ccn3)CC2)c1 [Example 204] | 7 nM |  | 
5 | COc1ccc(C(=O)N(CC(C)(C)CCCCCCn2cc(CCCCCCCCCCCC(=O)NCCCN(CC(=O)O)CC(=O)O)nn2)c2cccc(C)n2)c(N2CCC(COc3cc([C@@H](CC(=O)O)C4CC4)ccn3)CC2)c1 [Example 205] | 0.93 nM |  | 
6 | COc1ccc(C(=O)N(CC(C)(C)CCCCCCn2cc(CCCCCCCCCCCCCC(=O)NCCCN(CC(=O)O)CC(=O)O)nn2)c2cccc(C)n2)c(N2CCC(COc3cc([C@@H](CC(=O)O)C4CC4)ccn3)CC2)c1 [Example 206] | 0.59 nM |  | 
7 | COc1ccc(C(=O)N(CC(C)(C)CCCCCCn2cc(CCCCCCCCC(=O)NCCC[N+](C)(CC(=O)[O-])CC(=O)O)nn2)c2cccc(C)n2)c(N2CCC(COc3cc([C@@H](CC(=O)O)C4CC4)ccn3)CC2)c1 (stereo partly drawn) [Example 207] | 20.5 nM |  | 
8 | COc1ccc(C(=O)N(CC(C)(C)CCCCCCn2cc(CCCCCCCCCC(=O)NCCC[N+](C)(CC(=O)[O-])CC(=O)O)nn2)c2cccc(C)n2)c(N2CCC(COc3cc([C@@H](CC(=O)O)C4CC4)ccn3)CC2)c1 (stereo partly drawn) [Example 208] | 5.15 nM |  | 
9 | COc1ccc(C(=O)N(CC(C)(C)CCCCCCn2cc(CCCCCCCCCCCC(=O)NCCC[N+](C)(CC(=O)[O-])CC(=O)O)nn2)c2cccc(C)n2)c(N2CCC(COc3cc([C@@H](CC(=O)O)C4CC4)ccn3)CC2)c1 (stereo partly drawn) [Example 209] | 1 nM |  | 
10 | COc1ccc(C(=O)N(CC(C)(C)CCCCCCn2cc(CCCCCCCCCCCCCC(=O)NCCC[N+](C)(CC(=O)[O-])CC(=O)O)nn2)c2cccc(C)n2)c(N2CCC(COc3cc([C@@H](CC(=O)O)C4CC4)ccn3)CC2)c1 (stereo partly drawn) [Example 210] | 0.54 nM |  | 
11 | COc1ccc(C(=O)N(CC(C)(C)CCCCCCn2cc(CCCCCCC(=O)NCCC[N+](C)(CC(=O)[O-])CC(=O)O)nn2)c2cccc(C)n2)c(N2CCC(COc3cc([C@@H](CC(=O)O)C4CC4)ccn3)CC2)c1 (stereo partly drawn) [Example 212] | 143 nM |  | 
12 | COc1ccc(F)c(-c2ccc(COc3cccc([C@@H](CC(=O)O)C4CC4)c3)cc2CC(C)(C)Cn2cc(CCCCC(=O)NCCC[N+](C)(CC(=O)[O-])CC(=O)O)nn2)c1 (stereo partly drawn) [Example 213] | 358 nM |  | 
13 | COc1ccc(C(=O)N(CC(C)(C)CCn2cc(CCCCCCCCCCCCCCCC(=O)NCCCN(CC(=O)O)CC(=O)O)nn2)c2cccc(C)n2)c(N2CCC(COc3cc([C@@H](CC(=O)O)C4CC4)ccn3)CC2)c1 [Example 216] | 0.48 nM |  | 0.48 nM
14 | COc1ccc(C(=O)N(CC(C)(C)CCn2cc(CCCCCCCCCCCCCCCC(=O)NCCC[N+](C)(CC(=O)[O-])CC(=O)O)nn2)c2cccc(C)n2)c(N2CCC(COc3cc([C@@H](CC(=O)O)C4CC4)ccn3)CC2)c1 (stereo partly drawn) [Example 218] | 0.44 nM |  | 0.44 nM
15 | COc1ccc(F)c(-c2ccc(COc3cccc([C@@H](CC(=O)O)C4CC4)c3)cc2CC(C)(C)Cn2cc(CCCCC(=O)NCCN(CCC(=O)NCCN)CCC(=O)NCCN)nn2)c1 [Example 219] | > 10000 nM |  | 
16 | COc1ccc(F)c(-c2ccc(COc3cccc([C@@H](CC(=O)O)C4CC4)c3)cc2CC(C)(C)Cn2cc(CCCCCCCCC(=O)NCCN(CCC(=O)NCCN)CCC(=O)NCCN)nn2)c1 [Example 220] | > 10000 nM |  | > 10000 nM
17 | COc1ccc(C(=O)N(CC(C)(C)CCn2cc(CCCCCCCCC=CCCCCCCCCC(=O)NCCC[N+]34CCN(CC3)CC4)nn2)c2cccc(C)n2)c(N2CCC(COc3cc([C@@H](CC(=O)O)C4CC4)ccn3)CC2)c1 [Example 221] | 0.98 nM |  | 

Next, values leading:

Row | EC50 [1] | EC50 [2] | EC50 [3] | SMILES
18 | > 10000 nM |  |  | COc1ccc(C(=O)N(CC(C)(C)CCn2cc(CCCCC(=O)NCCN(CCC(=O)NCCN)CCC(=O)NCCN)nn2)c2cccc(C)n2)c(N2CCC(COc3cc([C@@H](CC(=O)O)C4CC4)ccn3)CC2)c1 [Example 195]
19 | 9870 nM |  | 9870 nM | COc1ccc(C(=O)N(CC(C)(C)CCn2cc(CCCCCCC(=O)NCCN(CCC(=O)NCCN)CCC(=O)NCCN)nn2)c2cccc(C)n2)c(N2CCC(COc3cc([C@@H](CC(=O)O)C4CC4)ccn3)CC2)c1 [Example 196]
20 | 84.3 nM | 84 nM | 84.3 nM | COc1ccc(C(=O)N(CC(C)(C)CCn2cc(CCCCCCCCCC(=O)NCCN(CCC(=O)NCCN)CCC(=O)NCCN)nn2)c2cccc(C)n2)c(N2CCC(COc3cc([C@@H](CC(=O)O)C4CC4)ccn3)CC2)c1 [Example 197]
21 | 0.17 nM | 0.17 nM | 0.17 nM | COc1ccc(C(=O)N(CC(C)(C)CCn2cc(CCCCCCCCCCCCCCCC(=O)NCCN(CCC(=O)NCCN)CCC(=O)NCCN)nn2)c2cccc(C)n2)c(N2CCC(COc3cc([C@@H](CC(=O)O)C4CC4)ccn3)CC2)c1 [Example 198]
22 | > 10000 nM |  | > 10000 nM | COc1ccc(C(=O)N(CC(C)(C)CCn2cc(CCCCC(=O)NCC[N+](C)(CCC(=O)NCCN)CCC(=O)NCCN)nn2)c2cccc(C)n2)c(N2CCC(COc3cc([C@@H](CC(=O)O)C4CC4)ccn3)CC2)c1 [Example 199]
23 | > 10000 nM |  | > 10000 nM | COc1ccc(C(=O)N(CC(C)(C)CCn2cc(CCCCCCC(=O)NCC[N+](C)(CCC(=O)NCCN)CCC(=O)NCCN)nn2)c2cccc(C)n2)c(N2CCC(COc3cc([C@@H](CC(=O)O)C4CC4)ccn3)CC2)c1 [Example 200]
24 | 44.6 nM | 45 nM | 45 nM | COc1ccc(C(=O)N(CC(C)(C)CCn2cc(CCCCCCCCCC(=O)NCC[N+](C)(CCC(=O)NCCN)CCC(=O)NCCN)nn2)c2cccc(C)n2)c(N2CCC(COc3cc([C@@H](CC(=O)O)C4CC4)ccn3)CC2)c1 [Example 201]
25 | 0.16 nM | 0.16 nM | 0.16 nM | COc1ccc(C(=O)N(CC(C)(C)CCn2cc(CCCCCCCCCCCCCCCC(=O)NCC[N+](C)(CCC(=O)NCCN)CCC(=O)NCCN)nn2)c2cccc(C)n2)c(N2CCC(COc3cc([C@@H](CC(=O)O)C4CC4)ccn3)CC2)c1 [Example 202]
26 | 66.3 nM |  |  | COc1ccc(C(=O)N(CC(C)(C)CCCCCCn2cc(CCCCC(=O)NCCC[N+](C)(CC(=O)[O-])CC(=O)O)nn2)c2cccc(C)n2)c(N2CCC(COc3cc([C@@H](CC(=O)O)C4CC4)ccn3)CC2)c1 (stereo partly drawn) [Example 211]
27 | 1360 nM |  | 1360 nM | COc1ccc(C(=O)N(CC(C)(C)CCn2cc(CCCCCCCCC(=O)NCCCN(CC(=O)O)CC(=O)O)nn2)c2cccc(C)n2)c(N2CCC(COc3cc([C@@H](CC(=O)O)C4CC4)ccn3)CC2)c1 [Example 215]
28 | 683 nM |  | 683 nM | COc1ccc(C(=O)N(CC(C)(C)CCn2cc(CCCCCCCCC(=O)NCCC[N+](C)(CC(=O)[O-])CC(=O)O)nn2)c2cccc(C)n2)c(N2CCC(COc3cc([C@@H](CC(=O)O)C4CC4)ccn3)CC2)c1 (stereo partly drawn) [Example 217]
